Assay results: US20190364896A1, “SYNERGISTIC WEED CONTROL FROM APPLICATIONS OF PYRIDINE CARBOXYLIC ACID HERBICIDES AND ALS INHIBITORS” (Dow AgroSciences LLC, priority 2014, published 2019)
Where two headings read alike, the source gives them in different places.

Legend:
Assay in all cases: Postemergence herbicidal activity, greenhouse trial (visual injury 0-100%)
Type in all cases: in vivo
[1] = tested on: wild buckwheat (Polygonum convolvulus, POLCO); settings: Fallopia convolvulus, post-emergence, read-out: % visual injury Obs
Protocol: (§1) Seeds of the desired test plant species were planted in Sun Gro MetroMix® 306 planting mixture, which typically has a pH of 6.0 to 6.8 and an organic matter content of about 30 percent, in plastic pots with a surface area of 103.2 square centimeters (cm^2). […] The plants were grown for 7-36 days (d) in a greenhouse with an approximate 14-hour (h) photoperiod which was maintained at about 23° C. during the day and 22° C. during the night. Nutrients and water were added on a regular basis and supplemental lighting was provided with overhead metal halide 1000-Watt lamps as necessary. The plants were employed for testing when they reached the second or third true leaf stage.
(§2) Weighed amounts of technical or formulated material (emulsifiable concentrate (EC) or soluble concentrate (SL)) were dissolved in a volume of 97:3 volume per volume (v/v) acetone/dimethyl sulfoxide (DMSO) to stock solutions. […] The concentrated stock solutions were diluted with an aqueous mixture of 1.5% v/v of Agri-dex crop oil concentrate to provide the appropriate application rates. Compound requirements are based upon a 12 milliliter (mL) application volume at a rate of 187 liters per hectare (L/ha). Spray solutions of the experimental compound mixtures were prepared by adding the stock solutions to the appropriate amount of dilution solution to form a 12 mL spray solution in two-way combinations. Formulated compounds were applied to the plant material with an overhead Mandel track sprayer equipped with 8002E nozzles calibrated to deliver 187 L/ha over an application area of 0.503 square meters (m^2) at a spray height of 18 inches (43 centimeters (cm)) above average plant canopy. Control plants were sprayed in the same manner with the solvent blank. Application rates for component (a) are in g ae/ha, and application rates for component (b) are in g ai/ha.
(§3) The treated plants and control plants were placed in a greenhouse as described above and watered by sub-irrigation to prevent wash-off of the test compounds. After 20-22 d, the condition of the test plants as compared with that of the control plants was determined visually and scored on a scale of 0 to 100 percent where 0 corresponds to no injury and 100 corresponds to complete kill. Colby's equation was used to determine the herbicidal effects expected from the mixtures. […]
(§4) Weighed amounts of technical material were dissolved in a volume of 97:3 volume per volume (v/v) acetone/dimethyl sulfoxide (DMSO) to stock solutions. […] The concentrated stock solutions were diluted with an aqueous mixture of 1.5% v/v of Agri-dex crop oil concentrate to provide the appropriate application rates. Compound requirements are based upon a 12 milliliter (mL) application volume at a rate of 187 liters per hectare (L/ha).

[2] = tested on: kochia (Kochia scoparia, KCHSC); settings: Bassia scoparia, post-emergence, read-out: % visual injury Obs
Protocol: as §1, §2, §3, §4

[3] = tested on: thistle (Cirsium arvense, CIRAR); settings: Cirsium arvense, post-emergence, read-out: % visual injury Obs
Protocol: as §1, §2, §3, §4

[4] = tested on: barnyardgrass (Echinochloa crus-galli, ECHCG); settings: Echinochloa crus-galli, post-emergence, 7.5 g ai/ha; read-out: % visual injury Obs
Protocol: as §1, §2
(§5) The treated plants and control plants were placed in a greenhouse as described above and watered by sub-irrigation to prevent wash-off of the test compounds. After 20-22 d, the condition of the test plants as compared with that of the control plants was determined visually and scored on a scale of 0 to 100 percent where 0 corresponds to no injury and 100 corresponds to complete kill. The condition of the test plants was compared with that of the control plants as determined visually and scored on a scale of 0 to 100 percent, where 0 corresponds to no injury and 100 corresponds to complete kill. Colby's equation was used to determine the herbicidal effects expected from the mixtures.
(§6) Compound 1 was formulated as an EC and was combined with florasulam, cloransulam, diclosulam, flumetsulam, penoxsulam, or pyroxsulam. Compound 2 was formulated as an EC and was combined with florasulam or pyroxsulam. The mixtures were applied to winter wheat (TRZAW), common rice (ORYSA), maize (ZEAMX), and the phytotoxicity of the herbicidal compositions was measured. In addition, the efficacy of the herbicidal compositions on blackgrass (Alopecurus myosuroides, ALOMY), pigweed (Amaranthus retrollexus, AMARE), wild oat (Avena fatua, AVEFA), common lambsquarters (Chenopodium album L., CHEAL), thistle (Cirsium arvense CIRAR), nutsedge (Cyperus esculentus, CYPES), barnyardgrass (Echinochloa crus-galli, ECHCG), poinsettia (Euphorbia heterophylla, EPHHL), ivyleaf morning-glory (Ipomoea hederacea, IPOHE), kochia (Kochia scoparia, KCHSC), wild buckwheat (Polygonum convolvulus, POLCO), grain sorghum (Sorghum vulgare, SORVU), chickweed (Stellaria media, STEME), wild pansy (Viola tricolor, VIOTR), was evaluated.
as §4, with “(L/ha). […]” for “(L/ha).”

[5] = tested on: ivyleaf morning-glory (Ipomoea hederacea, IPOHE); settings: Ipomoea hederacea, post-emergence, read-out: % visual injury Obs
Protocol: as §1, §2, §5, §6
as §4, with “(L/ha). […]” for “(L/ha).”

[6] = tested on: nutsedge (Cyperus esculentus, CYPES); settings: Cyperus, post-emergence, read-out: % visual injury Obs
Protocol: as §1
as §2, with “technical” for “technical or formulated”, “material” for “material (emulsifiable concentrate (EC) or soluble concentrate (SL))”
as §3, §2

[7] = tested on: wild pansy (Viola tricolor, VIOTR); settings: Viola tricolor, post-emergence, read-out: % visual injury Obs
Protocol: as §1, §2, §5
as §6, with “Compound 1 was formulated as an EC and was combined with florasulam, cloransulam, diclosulam, flumetsulam, penoxsulam, or pyroxsulam.” left out
as §4

[8] = tested on: common lambsquarters (Chenopodium album L., CHEAL); settings: Chenopodium album, post-emergence, read-out: % visual injury Obs
Protocol: as §1, §2, §5, §6
as §4, with “(L/ha). […]” for “(L/ha).”

[9] = tested on: grain sorghum (Sorghum vulgare, SORVU)
Protocol: as §1, §2, §5, §6
as §4, with “(L/ha). […]” for “(L/ha).”

[10] = tested on: chickweed (Stellaria media, STEME); settings: Stellaria media, post-emergence, STEME; azimsulfuron 6.25 g ai/ha; read-out: % visual injury Obs
Protocol: as §1, §2, §5, §6
as §4, with “(L/ha). […]” for “(L/ha).”

[11] = tested on: poinsettia (Euphorbia heterophylla, EPHHL); settings: Euphorbia heterophylla, post-emergence, read-out: % visual injury Obs
Protocol: as §1
as §2, with “technical” for “technical or formulated”, “material” for “material (emulsifiable concentrate (EC) or soluble concentrate (SL))”
as §3, §2

[12] = tested on: pigweed (Amaranthus retroflexus, AMARE); settings: Amaranthus retroflexus, post-emergence, read-out: % visual injury Obs
Protocol: as §1, §2, §3, §4

[13] = tested on: blackgrass (Alopecurus myosuroides, ALOMY)
Protocol: as §1, §2, §5, §6
as §4, with “(L/ha). […]” for “(L/ha).”

[14] = tested on: wild oat (Avena fatua, AVEFA)
Protocol: as §1, §2, §5, §6
as §4, with “(L/ha). […]” for “(L/ha).”

Compound `COc1cc(OC)nc(NC(=O)NS(=O)(=O)N(C)S(C)(=O)=O)n1` [Amidosulfuron, amidosulfuron] has a pest or weed control at […] ([1]; 7.5 g ai/ha) of 85%, a pest or weed control at […] ([2]; 7.5 g ai/ha) of 10% and a pest or weed control at […] ([3]; 7.5 g ai/ha) of 20%. For the same compound, the pest or weed control at […] [4] was 0%, the pest or weed control at […] ([5]; 7.5 g ai/ha) was 35% and the pest or weed control at […] ([6]; 7.5 g ai/ha) was 20%.
Compound `COc1cc(OC)nc(NC(=O)NS(=O)(=O)c2c(-c3nnn(C)n3)cnn2C)n1` [Azimsulfuron, azimsulfuron] has a pest or weed control ([7]; VIOTR, azimsulfuron 6.25 g ai/ha) of 60%, a pest or weed control ([2]; KCHSC, azimsulfuron 6.25 g ai/ha) of 0% and a pest or weed control ([8]; CHEAL, azimsulfuron 6.25 g ai/ha) of 10%. For the same compound, the “% visual injury Obs” value ([9]; SORVU, azimsulfuron 6.25 g ai/ha) was 65%, the pest or weed control [10] was 20% and the pest or weed control ([5]; IPOHE, azimsulfuron 6.25 g ai/ha) was 93%. For the same compound, the pest or weed control ([11]; EPHHL, azimsulfuron 6.25 g ai/ha) was 10%.
`Nc1c(F)c(-c2ccc3cc[nH]c3c2F)nc(C(=O)OCc2ccccc2)c1Cl` [Compound 2] showed a pest or weed control at 5 g/ha ([12]; 5 g ae/ha) of 88%, a pest or weed control at 10 g/ha ([12]; 10 g ae/ha) of 100% and a pest or weed control at 5 g/ha ([8]; 5 g ae/ha) of 88%. The pest or weed control at 10 g/ha ([8]; 10 g ae/ha) was 99%, the “% visual injury Obs” value ([13]; 5 g ae/ha) was 0% and the “% visual injury Obs” value ([13]; 10 g ae/ha) was 0%. The “% visual injury Obs” value ([14]; 5 g ae/ha) was 0%, the “% visual injury Obs” value ([14]; 10 g ae/ha) was 0% and the pest or weed control at 5 g/ha ([5]; 5 g ae/ha) was 10%. The pest or weed control at 10 g/ha ([5]; 10 g ae/ha) was 20%, the pest or weed control at 5 g/ha ([11]; 5 g ae/ha) was 35% and the pest or weed control at 10 g/ha ([11]; 10 g ae/ha) was 75%. It also gave a pest or weed control at 5 g/ha ([6]; 5 g ae/ha) of 5% and a pest or weed control at 10 g/ha ([6]; 10 g ae/ha) of 10%.
`Cc1ccn2nc(S(=O)(=O)Nc3c(F)cccc3F)nc2n1` [Flumetsulam, flumetsulam] gave a pest or weed control ([7]; 4.375 g ai/ha) of 70%, a pest or weed control ([2]; 4.375 g ai/ha) of 60% and a pest or weed control ([3]; 4.375 g ai/ha) of 10%. The “% visual injury Obs” value ([9]; 4.375 g ai/ha) was 60%, the pest or weed control ([11]; 4.375 g ai/ha) was 30% and the pest or weed control ([6]; 4.375 g ai/ha) was 10%.
In the case of `COc1cc(OC)nc(NC(=O)NS(=O)(=O)c2cc(NC=O)ccc2C(=O)N(C)C)n1` [Foramsulfuron, foramsulfuron], the pest or weed control at 10 g/ha ([12]; AMARE, foramsulfuron 10 g ai/ha) is reported as 85% and the “% visual injury Obs” value ([13]; ALOMY, foramsulfuron 10 g ai/ha) is reported as 93%.
For `COC(=O)c1ccc(CNS(C)(=O)=O)cc1S(=O)(=O)NC(=O)Nc1nc(OC)cc(OC)n1` [Mesosulfuron, mesosulfuron], the pest or weed control at 3 g/ha ([1]; POLCO, mesosulfuron 3 g ai/ha) was 20%, the pest or weed control at 3 g/ha ([2]; KCHSC, mesosulfuron 3 g ai/ha) was 10% and the “% visual injury Obs” value ([9]; SORVU, mesosulfuron 3 g ai/ha) was 97%.
For `COc1cnc(OC)n2nc(NS(=O)(=O)c3c(OCC(F)F)cccc3C(F)(F)F)nc12` [Penoxsulam, penoxsulam], the pest or weed control at 5 g/ha ([2]; 5 g ai/ha) was 10%, the “% visual injury Obs” value ([9]; 5 g ai/ha) was 0% and the pest or weed control at 5 g/ha ([5]; 5 g ai/ha) was 90%. For the same compound, the pest or weed control at 5 g/ha ([11]; 5 g ai/ha) was 60% and the pest or weed control at 5 g/ha ([6]; 5 g ai/ha) was 70%.
